Where two headings read alike, the source gives them in different places.
Legend:
[1] = Everolimus whole blood concentrations and Bayesian estimation of PK parameters and trough concentrations; type: in vivo, human; conditions: for trough concentration estimate at grade 2 stomatitis: person
Description: Whole blood samples for the everolimus assay were collected at least two weeks after initiation of treatment or after the last everolimus dose change. Blood samples were collected at pre-dose, 1, 4, and 8 h after the everolimus dose. Blood everolimus concentrations were measured using a latex agglutination turbidimetric immunoassay ([Mori et al., 2014]) for the samples collected during November 2015 to September 2016 (n = 10) and using electrochemiluminescence immunoassay ([Blackburn et al., 1991]) for the samples collected during October 2016 to November 2018 (n = 8). Since these two techniques are highly correlated, the measured results were considered to be the same (r = 0.972) ([Sasano et al., 2016]).
PK parameters such as clearance (CL) and volume of distribution were estimated using Bayesian analysis in MW/Pharm++ software (Mediware, Prague, Czech Republic) ([Fuchs et al., 2013]). […] Ka was fixed for all analyses due to the limited data to characterize the absorption. The PK parameters were allometrically scaled to body weight to account for the effect of body size differences according to the following formula: Pi=Ppop×(BWi/BWstandard)^power where Pi was the estimated PK parameter for individual i, Ppop was the typical population value of the PK parameters. BWstandard was the standard body weight of 70 kg. The power coefficient was 0.75 for CL and intercompartment clearance and 1 for volume of distribution of the central compartment and the peripheral compartment.
Everolimus concentrations at steady-state or at the time of occurrence of dose-limiting toxicity was estimated using the Bayesian-estimated PK parameters of the individual patient.

[2] = test system: patients with advanced or metastatic breast cancer; assay: Progression-free survival (Kaplan-Meier, log-rank); type: in vivo, human; conditions: for PFS: single patient
Text: This was a prospective, observational PK study. Patients with advanced or metastatic breast cancer who received everolimus between November 2015 and November 2018 at Kobe City Medical Center General Hospital were enrolled in this study. The main inclusion criteria included the following: age ≥20 years; Eastern Cooperative Oncology Group (ECOG) performance status (PS): 0 or 1; and adequate bone marrow, liver, and renal function. The main exclusion criteria were interstitial pneumonia or pulmonary fibrosis, HBsAg positive, and psychiatric or psychological symptoms that made it difficult to participate in the study. Every participant provided written informed consent. This study was conducted in accordance with the Declaration of Helsinki and approved by the Institutional Review Board, under Approval Number zn151103.
Statistical differences in everolimus trough concentrations, doses and body weights between patient cohorts were assessed using the Mann–Whitney test. Progression-free survival (PFS) was assessed using the Kaplan-Meier method and the log-rank test. All statistical analyses were performed using GraphPad Prism version 7.03 (San Diego, CA). p < 0.05 was considered statistically significant.

[3] = parameters: method as in de Wit et al. (2016); conditions: ref de Wit et al. (2016), cited from earlier work
[4] = test system: patients; conditions: cited from earlier work
[5] = cited from earlier work
[6] = test system: breast cancer patients; parameters: method as in Ito et al., 2015; conditions: Japanese population in the BOLERO-2 study; ref Ito et al., 2015; cited from earlier work
[7] = parameters: method as in Miesner et al. (2016); conditions: kidney cancer patient, 10 mg everolimus, concomitant clarithromycin 500 mg twice daily for 12 days, acute renal failure; ref Miesner et al. (2016); cited from earlier work
[8] = five patients who did not experience DLTs
[9] = patients with breast, kidney and neuroendocrine cancer, ref Deppenweiler et al. (2017)

Compound: CO[C@H]1C[C@@H]2CC[C@@H](C)[C@@](O)(O2)C(=O)C(=O)N2CCCC[C@H]2C(=O)O[C@H]([C@H](C)C[C@@H]2CC[C@@H](OCCO)[C@H](OC)C2)CC(=O)[C@H](C)/C=C(\C)[C@@H](O)[C@@H](OC)C(=O)[C@H](C)C[C@H](C)/C=C/C=C/C=C/1C [everolimus]
- steady-state trough concentrations at the starting dose, range ([1]; 5 mg starting dose, six patients, approximated with Bayesian-estimated PK parameters): 11.3 to 29.6 ng/mL
- estimated steady-state trough concentration when the dose was reduced and maintained without DLT, range ([1]; 13 patients who had DLTs): 5.7 to 24.2 ng/mL
- median estimated steady-state trough concentration when the dose was reduced and maintained without DLT ([1]; 13 patients who had DLTs): 8.3 ng/mL
- estimated trough concentration at the time of the DLTs, range ([1]; 13 patients with DLTs): 11.3 to 64.6 ng/mL
- median estimated trough concentration at the time of the DLTs ([1]; 13 patients with DLTs): 19.0 ng/mL
- CL, Mean ([1]; Bayesian estimate, steady state, Japanese breast cancer patients n = 18, scaled to 70 kg): 11.7 L/h/70 kg
- estimated trough concentration after dose reduction ([1]; all patients except in one patient): higher than 6 ng/ml
- steady-state trough concentration after restarting the treatment ([1]; case Figure 3A, 5 mg once daily, no DLTs): 8.4 ng/mL
- trough concentration estimate at grade 2 stomatitis ([1]; case Figure 3A, 10 mg once daily, two weeks after initiation): 16.8 ng/mL
- steady-state trough concentration after everolimus dose reduction ([1]; case Figure 3B, 5 mg every alternate day): 9.2 ng/mL
- trough concentration estimate at grade 2 stomatitis ([1]; case Figure 3B, 5 mg once daily, day 90): 29.6 ng/mL
- trough concentration, median [1, 8]: 19.0 ng/mL
- trough concentration, range [1, 8]: 12.8 to 33.2 ng/mL
- clearance (CL), range ([1]; inter-individual range, n = 18): 5.1–21.3 L/h/70 kg
- volume of distribution of the central compartment, range ([1]; inter-individual range, n = 18): 9.9–103.6 L/70 kg
- dose-adjusted trough concentrations, range ([1]; whole blood, steady state, doses 10, 5, 2.5 mg/day or 5 mg every alternate day): 1.3 to 6.5 ng/mL/mg/day
- PFS ([2]; case Figure 3A): 8.5 months
- PFS ([2]; case Figure 3B): 13.8 months
- trough concentration to which adjusting may significantly prolong PFS ([2]; discussion statement): 10 to 20 ng/mL
- trough concentration group with significantly longer PFS ([2]; groups <10 (n = 9), 10–20 (n = 6), >20 ng/ml (n = 3), log-rank p = 0.0078): 10 to 20 ng/mL
- number of patients with PFS more than 8.5 months ([2]; of 18 patients): 14
- PFS, range ([2]; study population, n = 18): 1.7–55.8 months
- median PFS ([2]; study population, n = 18, with exemestane): 13.7 months
- absorption rate constant (Ka) ([3]; fixed for all analyses): 0.643 h⁻¹
- clearance (CL), population prior ([3]; two-compartment model, patients with thyroid cancer): 20.3 L/h
- incidence of stomatitis ([4]; Japanese breast cancer patients, ref BOLERO-2 study): 88%
- proportion of patients who required a second dose reduction to 2.5 mg daily ([4]; clinical study in Spain (6/90), ref Pascual et al., 2017): 7%
- proportion of patients who required a dose reduction to 5 mg daily ([4]; clinical study in Spain (43/90), ref Pascual et al., 2017): 48%
- incidence of stomatitis ([4]; patients with breast cancer, ref Alexopoulos et al., 2022, Ruíz-Falcó Rojas et al., Tedesco-Silva et al.): 20%–50%
- incidence of stomatitis ([4]; renal transplant or tuberous sclerosis complex, ref Alexopoulos et al., 2022, Ruíz-Falcó Rojas et al., Tedesco-Silva et al.): approximately 10%
- suggested target trough concentration ([5]; kidney transplant patients, calcineurin-inhibitor-free regimen, ref Shipkova et al., 2016): 6 to 10 ng/mL
- trough concentration associated with increased risk of progression [5, 9]: lower than 11.9 ng/ml
- trough concentration associated with increased risk of toxicity [5, 9]: higher than 26.3 ng/ml
- trough concentration threshold for increased risk of overall severe toxicity ([5]; review, ref Falkowski and Woillard (2019)): higher than 20 ng/ml
- increase of risk of toxicity ([5]; trough concentrations higher than 26.3 ng/ml, ref Deppenweiler et al. (2017)): 4 fold
- increase of risk of progression ([5]; trough concentrations lower than 11.9 ng/ml, ref Deppenweiler et al. (2017)): 3 fold
- suggested target trough concentration ([5]; tuberous sclerosis, ref Combes et al., 2018): 5 to 15 ng/mL
- median PFS [6]: 8.5 months
- trough level of everolimus [7]: 110 ng/mL
